Among the data in patent US5830864A, “Antiherpes peptide derivatives having a ureido n-terminus” (priority 1995, dated 1998) are IC50 values, retold here.

The structures appear in SMILES notation. pIC50: −log10 of the molar value. *1 amine or outer side, *2 acyl side, *3 side chain or, on linkers, in order; H or OH if unused. Where a SMILES comes first, the peptide text is derived from it. [ ]: non-standard residue; d: D form. The star is where a group is joined. Gly(1-adamantyl) = N[C@H](C(=O)O)C12CC3CC(CC(C3)C1)C2; Asp(3,3-(CH2)4) = N[C@H](C(=O)O)C1(C(=O)O)CCCC1; tBuAla = CC(C)(C)C[C@H](N)C(=O)O; Tle = CC(C)(C)[C@H](N)C(=O)O; NH(3-pentyl) = CCC(CC)N*; Pyrrolidide = C1CCN(*)C1; X2 = CC(C)(C)CC(C)(C)N*; CO = O=C([*:1])[*:2]; X1 = CCCC1(N*)CCCC1; X3 = CCCC(C)(C)N*; X4 = CCCC(CCC)N*

For this assay, the target named is HSV-1 ribonucleotide reductase (Human herpesvirus 1, UniProt P08543). The assay is described as follows: biochemical.
HSV-1 ribonucleotide reductase, sequence (P08543 whole entry): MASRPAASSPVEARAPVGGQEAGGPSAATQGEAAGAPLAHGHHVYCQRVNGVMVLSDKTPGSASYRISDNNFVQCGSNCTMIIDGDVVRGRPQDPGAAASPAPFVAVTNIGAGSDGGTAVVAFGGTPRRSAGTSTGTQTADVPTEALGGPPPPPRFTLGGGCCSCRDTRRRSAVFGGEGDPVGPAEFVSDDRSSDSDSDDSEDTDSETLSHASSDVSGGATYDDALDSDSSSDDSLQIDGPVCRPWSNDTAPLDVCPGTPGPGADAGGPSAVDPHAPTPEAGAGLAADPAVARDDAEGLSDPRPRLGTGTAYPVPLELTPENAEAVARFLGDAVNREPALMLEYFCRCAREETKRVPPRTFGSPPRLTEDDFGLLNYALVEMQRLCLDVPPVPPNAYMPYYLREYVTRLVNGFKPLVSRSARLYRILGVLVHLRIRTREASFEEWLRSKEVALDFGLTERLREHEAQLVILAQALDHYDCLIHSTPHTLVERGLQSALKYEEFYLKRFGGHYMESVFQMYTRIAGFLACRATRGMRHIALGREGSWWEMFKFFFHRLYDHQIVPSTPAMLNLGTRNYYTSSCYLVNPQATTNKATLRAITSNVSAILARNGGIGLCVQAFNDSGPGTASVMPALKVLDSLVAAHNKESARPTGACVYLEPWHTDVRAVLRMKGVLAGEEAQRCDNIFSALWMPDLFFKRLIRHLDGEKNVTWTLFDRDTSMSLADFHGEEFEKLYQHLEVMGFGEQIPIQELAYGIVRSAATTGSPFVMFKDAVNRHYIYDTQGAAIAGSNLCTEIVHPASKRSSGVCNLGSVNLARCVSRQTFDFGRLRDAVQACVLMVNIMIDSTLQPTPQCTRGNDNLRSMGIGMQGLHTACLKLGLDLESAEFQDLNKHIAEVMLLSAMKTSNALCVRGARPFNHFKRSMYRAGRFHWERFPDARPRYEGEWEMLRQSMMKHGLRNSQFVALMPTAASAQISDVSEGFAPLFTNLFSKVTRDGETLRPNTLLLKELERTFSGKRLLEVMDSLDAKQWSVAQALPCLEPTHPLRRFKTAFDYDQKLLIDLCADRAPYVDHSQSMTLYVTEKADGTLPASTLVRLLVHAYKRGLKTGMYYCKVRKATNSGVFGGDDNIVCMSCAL
Text: HSV-1 ribonucleotide reductase (partially purified) was obtained from quiescent BHK-21/C13 cells infected with strain F HSV-1 virus at 10 plaque forming units/cell as described by E. A. Cohen et al., J. Gen.
The number of units of the enzyme preparation used in each assay was constant, based on the specific activity of the enzyme preparation.
Turning to `CCCC1(NC(=O)N[C@H](C(=O)N[C@@H](CC(=O)N2CCCC2)C(=O)N[C@H](C(=O)N[C@@H](CC(C)(C)C)C(=O)OCC)C2(C(=O)O)CCCC2)C(C)(C)C)CCCC1` [(1-propylcyclopentyl)-NHC(O)-Tbg-Asp(pyrrolidino)-Asp(cyPn)-γMeLeu-OEt] ({X1-CO}-[Tle]D(Pyrrolidide)[Asp(3,3-(CH2)4)][tBuAla]-OEt), the pIC50 (commonly the IC50 on a negative log10 scale, so that one unit is a factor of ten) was 6.70.

In the case of `CCCC1(NC(=O)N[C@H](C(=O)N[C@@H](CC(=O)N2CCCC2)C(=O)N[C@H](C(=O)N[C@@H](CC(C)(C)C)C(=O)O)C2(C(=O)O)CCCC2)C(C)(C)C)CCCC1` [(1-propylcyclopentyl)-NHC(O)-Tbg-Asp(pyrrolidino)-Asp(cyPn)-γMeLeu-OH] ({X1-CO}-[Tle]D(Pyrrolidide)[Asp(3,3-(CH2)4)][tBuAla]-OH), the pIC50 was 6.89.

For the compound `CC(C)(C)C[C@@H](CO)NC(=O)[C@@H](NC(=O)[C@H](CC(=O)N1CCCC1)NC(=O)[C@@H](NC(=O)NCc1ccccc1)C(C)(C)C)C1(C(=O)O)CCCC1` [BzlNHC(O)-Tbg-Asp(pyrrolidino)-Asp(cyPn)-γMeLeucinol], the negative-log IC50 (pIC50) is 6.39.

Regarding `CCC(CC)NC(=O)N[C@H](C(=O)N[C@@H](CC(=O)N1CCCC1)C(=O)N[C@H](C(=O)N[C@@H](CC(C)(C)C)C(=O)O)C1(C(=O)O)CCCC1)C12CC3CC(CC(C3)C1)C2` [Et2 CHNHC(O)--NH-(S)-CH(adamantyl)-C(O)-Asp(pyrrolidino)-Asp(cyPn)-γMeLeu-OH] ({NH(3-pentyl)-CO}-[Gly(1-adamantyl)]D(Pyrrolidide)[Asp(3,3-(CH2)4)][tBuAla]-OH), the negative-log IC50 (pIC50) is 7.09.

In turn, `CCC(CC)NC(=O)N[C@H](C(=O)N[C@@H](CC(=O)N1CCCC1)C(=O)N[C@H](C(=O)N[C@H](CO)CC(C)(C)C)C1(C(=O)O)CCCC1)C12CC3CC(CC(C3)C1)C2` [Et2 CHNHC(O)--NH-(S)-CH(adamantyl)-C(O)-Asp(pyrrolidino)-Asp(cyPn)-γMeLeucinol] had a pIC50 of 6.80.

`CCC(CC)NC(=O)N[C@H](C(=O)N[C@@H](CC(=O)N1CCCC1)C(=O)N[C@H](C(=O)NCCC(C)(C)C)C1(C(=O)O)CCCC1)C(C)(C)C` [Et2 CHNHC(O)-Tbg-Asp(pyrrolidino)-Asp(cyPn)-NHCH2 CH2 CMe3] had a negative logarithm of the IC50 (pIC50) of 6.70.

Turning to `CCC(CC)NC(=O)N[C@H](C(=O)N[C@@H](CC(=O)N1CCCC1)C(=O)N[C@H](C(=O)NCC(C)C)C1(C(=O)O)CCCC1)C(C)(C)C` [Et2 CHNHC(O)-Tbg-Asp(pyrrolidino)-Asp(cyPn)-NHCH2 CHMe2], the pIC50 is 6.22. This pIC50 lies 0.48 log units lower than the previous one.

With `CCC(CC)NC(=O)N[C@H](C(=O)N[C@@H](CC(=O)N1CCCC1)C(=O)N[C@H](C(=O)NCC(C)(C)C)C1(C(=O)O)CCCC1)C(C)(C)C` [Et2 CHNHC(O)-Tbg-Asp(pyrrolidino)-Asp(cyPn)-NHCH2 CMe3], the pIC50 is 6.89. This pIC50 lies 0.67 log units higher than the previous one.

Compound `CCC(CC)NC(=O)N[C@H](C(=O)N[C@@H](CC(=O)N1CCCC1)C(=O)N[C@H](C(=O)N[C@@H](CC(C)(C)C)C(=O)O)C1(C(=O)O)CCCC1)C(C)(C)C` [Et2 CHNHC(O)-Tbg-Asp(pyrrolidino)-Asp(cyPn)-γMeLeu-OH] ({NH(3-pentyl)-CO}-[Tle]D(Pyrrolidide)[Asp(3,3-(CH2)4)][tBuAla]-OH) gave a negative logarithm of the IC50 (pIC50) of 7.00.

Regarding `CCC(CC)NC(=O)N[C@H](C(=O)N[C@@H](CC(=O)N1CCCC1)C(=O)N[C@H](C(=O)N[C@H](CO)CC(C)(C)C)C1(C(=O)O)CCCC1)C(C)(C)C` [Et2 CHNHC(O)-Tbg-Asp(pyrrolidino)-Asp(cyPn)-γMeLeucinol], the pIC50 was 7.01. This pIC50 and that of the compound before are within 0.2 log units of each other.

As to `CCC(CC)NC(=O)N[C@H](C(=O)N[C@@H](CC(=O)N1CCCC1)C(=O)N[C@H](C(=O)N[C@@H](CC(C)C)C(=O)O)[C@H](C(=O)O)C(C)C)C(C)(C)C` [Et2 CHNHC(O)-Tbg-Asp(pyrrolidino)-Asp{(R)-iPr}-Leu-OH], the pIC50 is 6.24.

For the compound `CCC(CC)NC(=O)N[C@H](C(=O)N[C@@H](CC(=O)N1CCCC1)C(=O)N[C@H](C(=O)N[C@@H](CC(C)(C)C)C(=O)O)[C@H](C(=O)O)C(C)C)C(C)(C)C` [Et2 CHNHC(O)-Tbg-Asp(pyrrolidino)-Asp{(R)-iPr}-γMeLeu-OH], the pIC50 was 7.14.

Compound `CCC(CC)NC(=O)N[C@H](C(=O)N[C@@H](CC(=O)N1CCCC1)C(=O)N[C@H](C(=O)N[C@H](CO)CC(C)(C)C)[C@H](C(=O)O)C(C)C)C(C)(C)C` [Et2 CHNHC(O)-Tbg-Asp(pyrrolidino)-Asp{(R)-iPr}-γMeLeucinol] showed a negative logarithm of the IC50 (pIC50) of 7.00. The pIC50 values of the last two compounds are within 0.2 log units of each other.

For `CCCC(CC)(CCC)NC(=O)N[C@H](C(=O)N[C@@H](CC(=O)N1CCCC1)C(=O)N[C@H](C(=O)N[C@H](CC)C(C)(C)C)C1(C(=O)O)CCCC1)C(C)(C)C` [EtPr2 CNHC(O)-Tbg-Asp(pyrrolidino)Asp(cyPn)-NH-(R)-CH(Et)CMe3], the pIC50 is 6.85.

On to `CC(C)NC(=O)N[C@H](C(=O)N[C@@H](CC(=O)N1CCCC1)C(=O)N[C@H](C(=O)N[C@H](CO)CC(C)(C)C)C1(C(=O)O)CCCC1)C(C)(C)C` [Me2 CHNHC(O)-Tbg-Asp(pyrrolidino)-Asp(cyPn)-γMeLeucinol], for which the pIC50 is 7.15.

Turning to `CC(C)(C)C[C@H](NC(=O)[C@@H](NC(=O)[C@H](CC(=O)N1CCCC1)NC(=O)[C@@H](NC(=O)NC(C)(C)CC(C)(C)C)C(C)(C)C)C1(C(=O)O)CCCC1)C(=O)O` [Me3 CCH2 CMe2 NHC(O)-Tbg-Asp(pyrrolidino)-Asp(cyPn)-γMeLeu-OH] ({X2-CO}-[Tle]D(Pyrrolidide)[Asp(3,3-(CH2)4)][tBuAla]-OH), the pIC50 is 6.74.

`CC(C)(C)C[C@@H](CO)NC(=O)[C@@H](NC(=O)[C@H](CC(=O)N1CCCC1)NC(=O)[C@@H](NC(=O)NC(C)(C)C)C(C)(C)C)C1(C(=O)O)CCCC1` [Me3 CNHC(O)-Tbg-Asp(pyrrolidino)-Asp(cyPn)-γMeLeucinol] gave a pIC50 of 7.00.

Regarding `CNC(=O)N[C@H](C(=O)N[C@@H](CC(=O)N1CCCC1)C(=O)N[C@H](C(=O)N[C@H](CO)CC(C)(C)C)C1(C(=O)O)CCCC1)C(C)(C)C` [MeNHC(O)-Tbg-Asp(pyrrolidino)-Asp(cyPn)-γMeLeucinol], the pIC50 is 6.05.

With `CCCC(C)(CCC)NC(=O)N[C@H](C(=O)N[C@@H](CC(=O)N1CCCC1)C(=O)N[C@H](C(=O)NCC(C)(C)C)C1(C(=O)O)CCCC1)C(C)(C)C` [MePr2 CNHC(O)-Tbg-Asp(pyrrolidino)-Asp(cyPn)-NHCH2 CMe3], the pIC50 was 6.80.

`CC(C)(C)C[C@@H](CO)NC(=O)[C@@H](NC(=O)[C@H](CC(=O)N1CCCC1)NC(=O)[C@@H](NC(=O)Nc1ccccc1)C(C)(C)C)C1(C(=O)O)CCCC1` [PhNHC(O)-Tbg-Asp(pyrrolidino)-Asp(cyPn)-γMeLeucinol] gave a negative-log IC50 (pIC50) of 6.15.

Compound `CCCC(CCC)NC(=O)N[C@H](C(=O)N[C@@H](CC(=O)N1CCCC1)C(=O)N[C@H](C(=O)N[C@H](CO)CC(C)(C)C)C1(C(=O)O)CCCC1)C(C)(C)C(=O)O` [Pr2 CHNHC(O)-Asp(diMe)-Asp(pyrrolidino)-Asp(cyPn)-γMeLeucinol] showed a negative-log IC50 (pIC50) of 6.70.

`CCCC(CCC)NC(=O)N[C@H](C(=O)N[C@@H](CC(=O)N1CCCC1)C(=O)N[C@H](C(=O)NCC(C)(C)CC)C1(C(=O)O)CCCC1)C(C)(C)C` [Pr2 CHNHC(O)-Tbg-Asp(pyrrolidino)-Asp(cyPn)-NHCH2 CMe2 Et] showed a pIC50 of 6.62. The pIC50 values of the last two compounds are within 0.2 log units of each other.

Compound `CCCC(CCC)NC(=O)N[C@H](C(=O)N[C@@H](CC(=O)N1CCCC1)C(=O)N[C@H](C(=O)NCC(C)(C)C)C1(C(=O)O)CCCC1)C(C)(C)C` [Pr2 CHNHC(O)-Tbg-Asp(pyrrolidino)-Asp(cyPn)-NHCH2 CMe3] showed a pIC50 of 6.74.

Regarding `CCCC(CCC)NC(=O)N[C@H](C(=O)N[C@@H](CC(=O)N1CCCC1)C(=O)N[C@H](C(=O)N[C@H](C)C(C)(C)C)C1(C(=O)O)CCCC1)C(C)(C)C` [Pr2 CHNHC(O)-Tbg-Asp(pyrrolidino)-Asp(cyPn)-NHCH(CH3)CMe3], the pIC50 is 6.74.

Turning to `CCCC(CCC)NC(=O)N[C@H](C(=O)N[C@@H](CC(=O)N1CCCC1)C(=O)N[C@H](C(=O)N[C@@H](CC(C)(C)C)C(=O)O)C1(C(=O)O)CCCC1)C(C)(C)C` [Pr2 CHNHC(O)-Tbg-Asp(pyrrolidino)-Asp(cyPn)-γMeLeu-OH] ({X4-CO}-[Tle]D(Pyrrolidide)[Asp(3,3-(CH2)4)][tBuAla]-OH), the negative logarithm of the IC50 (pIC50) was 7.02.

Consider `CCCC(CCC)NC(=O)N[C@H](C(=O)N[C@@H](CC(=O)C1CCC1)C(=O)N[C@H](C(=O)NCC(C)(C)C)C1(C(=O)O)CCCC1)C(C)(C)C` [Pr2 CHNHC(O)-Tbg-NH-(S)-CH(2-cyclobutyl-2-oxoethyl)C(O)-Asp(cyPn)-NHCH2 CMe3], for which the negative-log IC50 (pIC50) was 6.60.

Compound `CCCC(CCC)NC(=O)N[C@H](C(=O)N[C@@H](CC(=O)C1CCCC1)C(=O)N[C@H](C(=O)NCC(C)(C)C)C1(C(=O)O)CCCC1)C(C)(C)C` [Pr2 CHNHC(O)-Tbg-NH-(S)-CH(2-cyclopentyl-2-oxoethyl)C(O)-Asp(cyPn)-NHCH2 CMe3] showed a negative-log IC50 (pIC50) of 6.70.

Turning to `CCCC(CCC)NC(=O)N[C@H](C(=O)N[C@@H](CC(=O)C1CCCCC1)C(=O)N[C@H](C(=O)NCC(C)(C)C)C1(C(=O)O)CCCC1)C(C)(C)C` [Pr2 CHNHC(O)-Tbg-NHCH(2-cyclohexyl-2-oxoethyl)C(O)-Asp(cyPn)-NHCH2 CMe3], the pIC50 was 6.85.

Take `CCCC(CCC)NC(=O)N[C@H](C(=O)N[C@@H](CC(=O)C(CC)CC)C(=O)N[C@H](C(=O)NCC(C)(C)C)C1(C(=O)O)CCCC1)C(C)(C)C` [Pr2 CHNHC(O)-Tbg-NHCH(3-ethyl-2-oxopentyl)CO-Asp(cyPn)-NHCH2 CMe3]: the pIC50 was 6.40.

With `CCCC(C)(C)NC(=O)N[C@H](C(=O)N[C@@H](CC(=O)N1CCCC1)C(=O)N[C@H](C(=O)N[C@@H](CC(C)(C)C)C(=O)O)C1(C(=O)O)CCCC1)C(C)(C)C` [PrMe2 CNHC(O)-Tbg-Asp(pyrrolidino)-Asp(cyPn)-γMeLeu-OH] ({X3-CO}-[Tle]D(Pyrrolidide)[Asp(3,3-(CH2)4)][tBuAla]-OH), the pIC50 was 7.00.

On to `CCCC(CCC)NC(=O)N[C@H](C(=O)N[C@@H](CC(=O)N1CCCC1)C(=O)N[C@H](C(=O)N[C@H](CO)CC(C)(C)C)C1(C(=O)O)CCCC1)C(C)(C)C` [Title Compound of Example 8, Pr2 CHNHC(O)-Tbg-Asp(pyrrolidino)-Asp(cyPn)-γMeLeucinol], for which the negative logarithm of the IC50 (pIC50) was 7.10.
